Source: ChEMBL document CHEMBL1147799, “An integrated in silico 3D model-driven discovery of a novel, potent, and selective amidosulfonamide 5-HT1A agonist (PRX-00023) for the treatment of anxiety and depression” (J Med Chem, 2006)
One block for each compound: values may come before it.

How the values were obtained:
[1] = target: T1, Alpha-2A adrenergic receptor (Rattus norvegicus) (UniProt P22909); assay: Displacement of [3H]RX 821002 from Adrenergic alpha-2a receptor in rat cerebral cortex cells at 1 uM; format: cell-based
T1 sequence (whole entry): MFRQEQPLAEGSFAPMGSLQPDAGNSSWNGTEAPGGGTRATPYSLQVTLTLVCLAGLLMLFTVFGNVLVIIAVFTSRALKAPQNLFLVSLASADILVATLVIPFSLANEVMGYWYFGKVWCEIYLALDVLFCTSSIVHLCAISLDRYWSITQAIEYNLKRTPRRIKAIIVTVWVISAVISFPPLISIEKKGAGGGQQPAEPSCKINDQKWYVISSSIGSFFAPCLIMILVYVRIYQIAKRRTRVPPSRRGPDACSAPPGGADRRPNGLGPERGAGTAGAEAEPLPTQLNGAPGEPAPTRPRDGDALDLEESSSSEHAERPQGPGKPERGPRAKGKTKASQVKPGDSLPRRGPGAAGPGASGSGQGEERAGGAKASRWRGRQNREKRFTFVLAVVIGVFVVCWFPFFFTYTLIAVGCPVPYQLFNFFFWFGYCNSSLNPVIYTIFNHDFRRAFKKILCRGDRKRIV

[2] = target: T2, Adrenergic receptor alpha-1 (Rattus norvegicus) (UniProt P15823+P23944+P43140); assay: Displacement of [3H]prazosin from Adrenergic alpha-1 receptor in rat cerebral cortex cells at 1 uM; format: cell-based
[3] = Half life in human liver microsome at 5 uM; format: ADME; details: liver microsomes
[4] = Protein binding in human serum at 2 uM; format: ADME, organism-based; details: read-out: PPB (converted)
Cytochrome P450 1A2 = Cytochrome P450 1A2 (Homo sapiens, UniProt P05177); assay: Inhibition of human recombinant cytochrome P450 1A2; format: ADME; details: recombinant enzyme
Cytochrome P450 1A2, sequence (P05177 whole entry): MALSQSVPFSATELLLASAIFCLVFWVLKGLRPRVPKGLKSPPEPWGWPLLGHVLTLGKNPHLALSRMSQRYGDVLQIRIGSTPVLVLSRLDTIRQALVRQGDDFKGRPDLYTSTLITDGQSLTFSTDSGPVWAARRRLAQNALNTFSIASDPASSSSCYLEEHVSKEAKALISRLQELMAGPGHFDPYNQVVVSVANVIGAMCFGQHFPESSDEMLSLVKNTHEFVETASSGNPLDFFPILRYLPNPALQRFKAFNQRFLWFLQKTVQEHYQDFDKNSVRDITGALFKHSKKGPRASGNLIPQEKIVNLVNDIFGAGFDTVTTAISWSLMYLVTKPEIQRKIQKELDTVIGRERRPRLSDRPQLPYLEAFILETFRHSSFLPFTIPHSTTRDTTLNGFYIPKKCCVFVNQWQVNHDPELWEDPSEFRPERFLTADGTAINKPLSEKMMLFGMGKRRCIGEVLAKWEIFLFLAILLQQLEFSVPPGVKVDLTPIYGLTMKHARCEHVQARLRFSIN

Cytochrome P450 2C9 = Cytochrome P450 2C9 (Homo sapiens, UniProt P11712); assay: Inhibition of human recombinant cytochrome P450 2C9; format: ADME; details: recombinant enzyme
Cytochrome P450 2C9, sequence (P11712 whole entry): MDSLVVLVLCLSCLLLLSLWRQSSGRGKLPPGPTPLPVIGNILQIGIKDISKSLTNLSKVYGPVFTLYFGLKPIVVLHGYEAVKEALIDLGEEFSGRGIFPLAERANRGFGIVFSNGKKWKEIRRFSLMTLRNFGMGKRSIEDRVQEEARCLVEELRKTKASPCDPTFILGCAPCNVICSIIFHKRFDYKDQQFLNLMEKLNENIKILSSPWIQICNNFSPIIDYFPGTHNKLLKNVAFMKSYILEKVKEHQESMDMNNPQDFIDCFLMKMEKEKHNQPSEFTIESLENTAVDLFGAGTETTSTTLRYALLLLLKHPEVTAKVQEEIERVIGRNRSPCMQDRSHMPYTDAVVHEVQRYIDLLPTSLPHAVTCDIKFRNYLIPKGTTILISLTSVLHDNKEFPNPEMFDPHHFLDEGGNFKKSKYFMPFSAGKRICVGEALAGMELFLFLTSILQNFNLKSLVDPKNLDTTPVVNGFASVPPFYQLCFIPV

Cytochrome P450 2C19 = Cytochrome P450 2C19 (Homo sapiens, UniProt P33261); assay: Inhibition of human recombinant cytochrome P450 2C19; format: ADME; details: recombinant enzyme
Cytochrome P450 2D6 = Cytochrome P450 2D6 (Homo sapiens, UniProt P10635); assay: Inhibition of human recombinant cytochrome P450 2D6; format: ADME; details: recombinant enzyme
Cytochrome P450 2D6, sequence (P10635 whole entry): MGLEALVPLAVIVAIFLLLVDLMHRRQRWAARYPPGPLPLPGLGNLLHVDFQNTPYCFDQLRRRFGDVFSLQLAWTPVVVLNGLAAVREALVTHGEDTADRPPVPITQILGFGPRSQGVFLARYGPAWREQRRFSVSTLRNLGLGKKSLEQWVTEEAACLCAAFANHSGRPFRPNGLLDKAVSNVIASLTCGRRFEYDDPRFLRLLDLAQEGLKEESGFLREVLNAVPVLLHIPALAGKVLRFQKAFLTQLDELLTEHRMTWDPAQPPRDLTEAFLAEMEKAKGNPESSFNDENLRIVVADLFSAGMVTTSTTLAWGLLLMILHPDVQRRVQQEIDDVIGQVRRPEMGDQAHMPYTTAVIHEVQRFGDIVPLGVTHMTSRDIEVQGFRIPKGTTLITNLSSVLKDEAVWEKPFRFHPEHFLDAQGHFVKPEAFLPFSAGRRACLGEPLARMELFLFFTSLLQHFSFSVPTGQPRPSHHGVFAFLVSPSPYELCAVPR

Cytochrome P450 3A4 = Cytochrome P450 3A4 (Homo sapiens, UniProt P08684); assay: Inhibition of human recombinant cytochrome P450 3A4; format: ADME; details: recombinant enzyme
Cytochrome P450 3A4, sequence (P08684 whole entry): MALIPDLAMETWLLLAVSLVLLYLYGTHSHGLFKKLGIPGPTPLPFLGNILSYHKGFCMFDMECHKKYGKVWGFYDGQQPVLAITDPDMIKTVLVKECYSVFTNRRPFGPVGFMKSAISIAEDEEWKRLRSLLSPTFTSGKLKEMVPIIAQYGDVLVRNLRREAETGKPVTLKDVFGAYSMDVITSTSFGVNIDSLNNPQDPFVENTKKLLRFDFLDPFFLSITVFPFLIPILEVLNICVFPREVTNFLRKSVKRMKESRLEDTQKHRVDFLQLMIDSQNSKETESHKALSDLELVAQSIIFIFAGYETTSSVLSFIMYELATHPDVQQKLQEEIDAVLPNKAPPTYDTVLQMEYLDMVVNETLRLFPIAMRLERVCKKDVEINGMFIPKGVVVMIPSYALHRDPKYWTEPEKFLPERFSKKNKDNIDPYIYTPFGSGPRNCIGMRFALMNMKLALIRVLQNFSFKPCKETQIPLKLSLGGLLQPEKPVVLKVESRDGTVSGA

[5] = Cmax in Sprague-Dawley rat at 3 mg/kg, po; format: ADME, organism-based; set-up: dose 3 mg/kg, route oral; details: in vivo
[6] = Half life in Beagle dog at 3 mg/kg, po; format: ADME, organism-based, Canis lupus familiaris; set-up: dose 3 mg/kg, route oral; details: in vivo
[7] = Oral bioavailability in Beagle dog at 3 mg/kg, po and 1 mg/kg, iv; format: ADME, organism-based, Canis lupus familiaris; details: in vivo
[8] = Cmax in Beagle dog at 3 mg/kg, po; format: ADME, organism-based, Canis lupus familiaris; set-up: dose 3 mg/kg, route oral; details: in vivo
[9] = target: T3, 5-hydroxytryptamine receptor 1A (Homo sapiens, UniProt P08908); assay: Displacement of [3H]8-OH-DPAT from human 5HT1A receptor in HEK293 cells
T3 sequence (P08908 whole entry): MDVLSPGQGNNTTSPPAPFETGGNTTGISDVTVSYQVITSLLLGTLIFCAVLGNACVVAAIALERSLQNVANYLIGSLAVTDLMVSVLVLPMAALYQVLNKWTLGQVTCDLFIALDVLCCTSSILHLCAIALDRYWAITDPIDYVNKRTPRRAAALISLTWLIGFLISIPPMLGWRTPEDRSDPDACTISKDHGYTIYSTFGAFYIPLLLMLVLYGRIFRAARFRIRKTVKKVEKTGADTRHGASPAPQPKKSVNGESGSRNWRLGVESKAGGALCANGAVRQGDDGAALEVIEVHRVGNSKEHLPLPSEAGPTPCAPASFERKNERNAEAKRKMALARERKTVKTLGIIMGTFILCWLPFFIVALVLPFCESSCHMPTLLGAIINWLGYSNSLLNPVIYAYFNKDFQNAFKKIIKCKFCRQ

[10] = target: T4, Adrenergic receptor alpha-1 (Rattus norvegicus, UniProt P15823+P23944+P43140); assay: Displacement of [3H]prazosin from adrenergic alpha-1 receptor in rat cerebral cortex cells; format: cell-based
T4 sequence (P15823 whole entry): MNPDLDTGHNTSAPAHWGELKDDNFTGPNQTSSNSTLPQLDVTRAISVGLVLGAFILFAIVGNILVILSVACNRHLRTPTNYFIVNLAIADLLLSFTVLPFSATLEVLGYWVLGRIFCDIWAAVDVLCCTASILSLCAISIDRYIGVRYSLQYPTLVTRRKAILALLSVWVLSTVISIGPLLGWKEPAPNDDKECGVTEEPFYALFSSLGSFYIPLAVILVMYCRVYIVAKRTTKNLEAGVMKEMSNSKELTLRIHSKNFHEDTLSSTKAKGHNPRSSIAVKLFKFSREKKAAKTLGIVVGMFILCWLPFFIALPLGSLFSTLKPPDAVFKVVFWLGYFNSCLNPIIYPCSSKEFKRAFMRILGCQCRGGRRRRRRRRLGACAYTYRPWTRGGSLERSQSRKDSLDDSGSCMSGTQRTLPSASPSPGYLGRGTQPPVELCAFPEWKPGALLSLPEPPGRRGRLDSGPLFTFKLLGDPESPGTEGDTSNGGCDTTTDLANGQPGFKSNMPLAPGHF
T4 sequence (P23944 whole entry): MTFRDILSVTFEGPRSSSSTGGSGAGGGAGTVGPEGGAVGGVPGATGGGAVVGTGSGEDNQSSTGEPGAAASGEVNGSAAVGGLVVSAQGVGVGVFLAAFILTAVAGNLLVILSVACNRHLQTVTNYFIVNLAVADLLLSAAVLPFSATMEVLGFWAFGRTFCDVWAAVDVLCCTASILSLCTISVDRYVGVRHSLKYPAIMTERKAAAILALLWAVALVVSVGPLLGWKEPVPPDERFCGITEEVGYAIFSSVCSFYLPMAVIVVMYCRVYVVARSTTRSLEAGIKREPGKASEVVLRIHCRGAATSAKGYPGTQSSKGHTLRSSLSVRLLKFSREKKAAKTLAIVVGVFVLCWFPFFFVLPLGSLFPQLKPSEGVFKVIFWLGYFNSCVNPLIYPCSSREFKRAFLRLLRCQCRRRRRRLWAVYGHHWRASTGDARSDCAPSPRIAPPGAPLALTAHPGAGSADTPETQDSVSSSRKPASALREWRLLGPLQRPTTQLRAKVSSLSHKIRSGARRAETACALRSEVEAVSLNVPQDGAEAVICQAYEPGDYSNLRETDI
T4 sequence (P43140 whole entry): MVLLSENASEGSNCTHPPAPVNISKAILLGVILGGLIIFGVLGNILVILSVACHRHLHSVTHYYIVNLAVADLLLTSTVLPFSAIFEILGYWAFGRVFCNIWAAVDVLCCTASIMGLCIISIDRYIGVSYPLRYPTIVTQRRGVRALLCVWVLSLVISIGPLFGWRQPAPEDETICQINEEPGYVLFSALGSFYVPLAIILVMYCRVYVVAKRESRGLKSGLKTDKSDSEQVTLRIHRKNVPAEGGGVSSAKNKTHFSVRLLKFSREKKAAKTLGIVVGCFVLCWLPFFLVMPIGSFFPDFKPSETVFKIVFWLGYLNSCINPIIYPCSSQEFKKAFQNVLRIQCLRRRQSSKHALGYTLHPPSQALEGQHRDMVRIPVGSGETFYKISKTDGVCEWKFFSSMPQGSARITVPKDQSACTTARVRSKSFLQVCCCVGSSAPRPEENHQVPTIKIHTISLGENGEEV

D(2) dopamine receptor = D(2) dopamine receptor (Homo sapiens, UniProt P14416); assay: Binding affinity to D2 receptor by radioligand binding assay
D(2) dopamine receptor, sequence (P14416 whole entry): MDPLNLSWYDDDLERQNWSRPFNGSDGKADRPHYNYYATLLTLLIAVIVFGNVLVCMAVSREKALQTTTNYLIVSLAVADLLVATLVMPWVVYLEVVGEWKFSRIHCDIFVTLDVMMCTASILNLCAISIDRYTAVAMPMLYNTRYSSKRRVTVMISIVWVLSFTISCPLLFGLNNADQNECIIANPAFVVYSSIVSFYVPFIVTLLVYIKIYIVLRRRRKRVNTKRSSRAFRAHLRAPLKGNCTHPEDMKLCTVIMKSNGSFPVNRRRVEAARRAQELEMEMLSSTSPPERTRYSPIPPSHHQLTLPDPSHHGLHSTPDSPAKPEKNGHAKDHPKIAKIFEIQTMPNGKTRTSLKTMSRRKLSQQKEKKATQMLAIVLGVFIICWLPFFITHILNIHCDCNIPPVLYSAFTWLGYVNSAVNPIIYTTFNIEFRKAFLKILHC

[11] = target: T3, 5-hydroxytryptamine receptor 1A; assay: Activity against 5HT1A receptor by Gi-[35S]GTP-gamma-S binding assay; format: functional
[12] = Half life in Sprague-Dawley rat at 3 mg/kg, po; format: ADME, organism-based; set-up: dose 3 mg/kg, route oral; details: in vivo
[13] = Oral bioavailability in Sprague-Dawley rat at 3 mg/kg, po and 1 mg/kg, iv; format: ADME, organism-based; details: in vivo
[14] = Half life in human liver S9 fraction at 5 uM; format: ADME
[15] = target: T2, Adrenergic receptor alpha-1 (Rattus norvegicus); assay: Displacement of [3H]prazosin from Adrenergic alpha-1 receptor in rat cerebral cortex cells at 1 uM
[16] = Selectivity for adrenergic alpha-1 receptor over 5HT1A receptor
[17] = target: Dopamine D2 receptor and serotonin 1a receptor (Homo sapiens) (UniProt P14416+P08908); assay: Selectivity for D2 receptor over 5HT1A receptor; format: protein assay
Dopamine D2 receptor and serotonin 1a receptor (Homo sapiens), sequence (P14416 whole entry, looked up, one chain of several): as the sequence (P14416 whole entry) above

[18] = Elimination half life in human; format: ADME, organism-based; details: in vivo
[19] = target: Voltage-gated inwardly rectifying potassium channel KCNH2 (Homo sapiens, UniProt Q12809); assay: Inhibition of hERG potassium channel in HEK293 cells by patch clamp assay
Voltage-gated inwardly rectifying potassium channel KCNH2, sequence (Q12809 whole entry): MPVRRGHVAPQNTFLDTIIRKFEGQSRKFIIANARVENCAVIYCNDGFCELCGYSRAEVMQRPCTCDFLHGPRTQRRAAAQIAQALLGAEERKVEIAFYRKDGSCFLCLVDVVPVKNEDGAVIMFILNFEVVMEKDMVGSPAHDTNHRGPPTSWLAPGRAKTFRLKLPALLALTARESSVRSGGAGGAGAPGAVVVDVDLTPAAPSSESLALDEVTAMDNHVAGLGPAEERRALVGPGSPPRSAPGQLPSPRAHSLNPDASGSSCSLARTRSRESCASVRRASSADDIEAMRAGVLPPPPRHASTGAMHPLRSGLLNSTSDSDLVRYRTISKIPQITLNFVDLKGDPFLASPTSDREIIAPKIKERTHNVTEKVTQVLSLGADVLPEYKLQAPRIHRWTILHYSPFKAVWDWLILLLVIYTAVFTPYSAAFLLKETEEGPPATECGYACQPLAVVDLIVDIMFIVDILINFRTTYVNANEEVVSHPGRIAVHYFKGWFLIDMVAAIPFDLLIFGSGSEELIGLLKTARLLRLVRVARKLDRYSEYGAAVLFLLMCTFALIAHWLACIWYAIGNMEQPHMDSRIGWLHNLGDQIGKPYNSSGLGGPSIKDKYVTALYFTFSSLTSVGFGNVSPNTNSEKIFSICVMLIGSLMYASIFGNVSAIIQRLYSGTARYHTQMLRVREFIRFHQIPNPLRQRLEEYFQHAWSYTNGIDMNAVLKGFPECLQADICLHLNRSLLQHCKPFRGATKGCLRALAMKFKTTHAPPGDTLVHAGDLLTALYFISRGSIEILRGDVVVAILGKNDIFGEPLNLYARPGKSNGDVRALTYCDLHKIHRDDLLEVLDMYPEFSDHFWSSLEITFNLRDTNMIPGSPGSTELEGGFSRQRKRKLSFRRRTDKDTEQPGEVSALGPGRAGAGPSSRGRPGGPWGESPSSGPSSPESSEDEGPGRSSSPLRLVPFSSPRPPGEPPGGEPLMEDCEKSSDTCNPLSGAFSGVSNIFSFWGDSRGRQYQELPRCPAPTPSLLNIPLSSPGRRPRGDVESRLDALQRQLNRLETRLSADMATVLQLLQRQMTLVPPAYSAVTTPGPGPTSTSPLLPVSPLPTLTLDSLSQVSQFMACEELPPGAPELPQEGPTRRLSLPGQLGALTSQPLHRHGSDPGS

hERG (KCNH2) = hERG (KCNH2) (Homo sapiens, UniProt Q12809); assay: Inhibition of hERG potassium channel in HEK293 cells by patch clamp assay at 1 uM; details: HEK293 cells that express hERG
hERG (KCNH2), sequence (Q12809 whole entry): as above

[20] = target: T5, 5-hydroxytryptamine receptor 1A (Homo sapiens) (UniProt P08908); assay: Activity against 5HT1A receptor relative to 5-HT by Gi-[35S]GTP-gamma-S binding assay; format: functional
T5 sequence (whole entry): T3 sequence (P08908 whole entry)

[21] = Toxicity in po dosed Sprague-Dawley rat; format: organism-based; details: in vivo
[22] = Toxicity in po dosed Beagle dog; format: organism-based, Canis lupus familiaris; details: in vivo

Activity [1]: < 10%
Activity [2]: 49%
Compound: CC(=O)Nc1cccc(N2CCN(CC3CCN(S(=O)(=O)c4ccc(F)cc4)CC3)CC2)c1

Activity [1]: 12%
Activity [2]: 12%
Compound: CCCC(=O)Nc1cccc(N2CCN(CCCCNS(=O)(=O)c3ccc(C)cc3)CC2)c1

Activity [1]: 0%
half-life at 5 µM [3]: > 1.5 h
fraction unbound at 2 µM [4]: 0.43
Inhibition (Cytochrome P450 1A2): Not Active
Inhibition (Cytochrome P450 2C9): Not Active
Inhibition (Cytochrome P450 2C19): Not Active
Inhibition (Cytochrome P450 2D6): Not Active
Inhibition (Cytochrome P450 3A4): Not Active
Cmax [5]: 350 ng/mL
half-life [6]: 2.4 h
bioavailability [7]: > 80%
Cmax [8]: 600 ng/mL
Ki [9]: 9.2 nM
Ki [10]: > 5000 nM
Ki (D(2) dopamine receptor): > 5000 nM
EC50 [11]: 60 nM
half-life [12]: 3.5 h
bioavailability [13]: 50%
Activity [2]: 5%
Compound: CC(=O)Nc1cccc(N2CCN(CCCCNS(=O)(=O)CC(C)C)CC2)c1

Activity [1]: 10%
Ki [9]: 22 nM
Activity [2]: < 10%
Compound: Cc1ccc(S(=O)(=O)NCCCCN2CCN(c3cccc(NC(=O)C4CC4)c3)CC2)cc1

Activity [1]: < 10%
Activity [2]: 39%
Compound: CC(=O)Nc1cccc(N2CCN(CCCCNS(=O)(=O)c3ccc(F)cc3)CC2)c1

Activity [1]: 47%
half-life at 5 µM [3]: 0.2 h
half-life at 5 µM [14]: 1.08 h
EC50 [11]: 3.6 nM
Activity [2]: 37%
Activity [15]: 37%
Compound: CC(=O)Nc1cccc(N2CCN(CCCCN(C)S(=O)(=O)CC3CCCCC3)CC2)c1

Ki [9]: 6 nM
Ki [10]: 229 nM
Ratio Ki [16]: 38
Ki (D(2) dopamine receptor): 110 nM
Ratio Ki [17]: 18
half-life [18]: 2 h
Compound: O=C1c2ccccc2S(=O)(=O)N1CCCCN1CCN(c2ncccn2)CC1 [IPSAPIRONE]

Activity [1]: 16%
half-life at 5 µM [3]: > 0.75 h
Ki [9]: 9.7 nM
EC50 [11]: 32 nM
Activity [2]: 27%
Activity [15]: 27%
Compound: CC(=O)Nc1cccc(N2CCN(CCCCN(C)S(=O)(=O)CC(C)C)CC2)c1
IC50 [19]: 2200 nM
inhibition at 1 µM (hERG (KCNH2)): 31%

Activity [1]: 43%
half-life at 5 µM [3]: 0.65 h
Ki [10]: > 3500 nM
half-life [12]: 3.3 h
bioavailability [13]: 15%
Activity [2]: 22%
Compound: CC(=O)Nc1cccc(N2CCN(CCCCNS(=O)(=O)c3ccc(C)cc3)CC2)c1

Activity [1]: < 10%
Activity [2]: < 10%
Compound: CC(=O)Nc1cccc(N2CCN(CC3CCN(S(=O)(=O)C(C)C)CC3)CC2)c1

Activity [1]: 31%
Ki [9]: 426 nM
Activity [2]: 0%
Compound: CCC(=O)Nc1cccc(N2CCN(CCCCNS(=O)(=O)c3ccc(C)cc3)CC2)c1

Compound: O=C1CC2(CCCC2)CC(=O)N1CCCCN1CCN(c2ncccn2)CC1 [BUSPIRONE]
Cmax [5]: 4 ng/mL
half-life [6]: 1 h
Cmax [8]: 146 ng/mL
half-life [18]: 2 h
Activity [20]: 50%
half-life [12]: 1 h
LD50 [21]: 196 mg/kg
LD50 [22]: 586 mg/kg
